Columns and labels:
Blood [1] = assay: Inhibition of LTB4 production in human whole blood; format: functional, tissue-based
Blood [2] = assay: Inhibition of A23187-induced LTB4 production in human whole blood pre-incubated for 15 mins before A23187 stimulation for another 15 mins; format: functional, tissue-based
[3] = molecular target: T1, Arachidonate 5-lipoxygenase-activating protein (Homo sapiens, UniProt P20292); assay: Binding affinity to FLAP (unknown origin)
T1 sequence (P20292 whole entry): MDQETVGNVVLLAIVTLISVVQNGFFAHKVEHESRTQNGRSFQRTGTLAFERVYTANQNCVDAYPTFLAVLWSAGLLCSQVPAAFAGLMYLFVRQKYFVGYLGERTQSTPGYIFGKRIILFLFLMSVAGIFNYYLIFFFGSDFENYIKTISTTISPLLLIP

Structure (SMILES) | IC50 (Blood [1]) [µM] | IC50 (Blood [2]) [µM] | IC50 [3] [µM]
CC(C)C(C)(c1ccc(-c2ccc(C(C)(C)O)nn2)cc1)c1ccc(OCc2ccccn2)cn1 (stereo unspecified) | 0.012 |  | 
Nc1cnc(-c2ccc(C3CCC3)c(Oc3ncccn3)c2F)cn1 |  | 0.066 | 

The remaining compounds from weak to strong by IC50 (Blood [1]), led by results:

IC50 (Blood [1]) [µM] | IC50 (Blood [2]) [µM] | IC50 [3] [µM] | Structure (SMILES)
0.5 |  | 0.036 | CC(C)(C)Sc1c(CC(C)(C)C(=O)O)n(Cc2ccc(Cl)cc2)c2ccc(OCc3ccc4ccccc4n3)cc12 [QUIFLAPON]
0.12 |  |  | CC(C)Cc1ccc(C(C)c2nc3ccccc3n2Cc2ccccc2Cl)cc1 (stereo unspecified)
0.062 |  |  | CC(C)(O)CNC(=O)c1ccc(C2(c3ccc(-c4cnc(N)cn4)cc3)CCCO2)cn1 (stereo unspecified)

— ChEMBL document CHEMBL3585331, “Recent advances for FLAP inhibitors” (Bioorg Med Chem Lett, 2015)
